Results: ChEMBL document CHEMBL3351453 (2014)
Active and inactive are the calls of the source. No cut-off for these calls is given here.

Assays:
A549 [1] = experiment: Cytotoxicity against human A549 cells assessed as cell viability at 40 uM after 24 hrs by MTT assay (reference value: 100%); format: functional; settings: A549, 24 h, read-out: Activity
A549 [2] = experiment: Cytotoxicity against human A549 cells assessed as cell viability at 20 uM after 24 hrs by MTT assay (reference value: 100%); format: functional; settings: A549, 24 h, read-out: Activity
A549 [3] = experiment: Cytotoxicity against human A549 cells assessed as cell viability at 80 uM after 24 hrs by MTT assay (reference value: 100%); format: functional; settings: A549, 24 h, read-out: Activity
A549 [4] = experiment: Cytotoxicity against human A549 cells assessed as cell viability at 10 uM after 24 hrs by MTT assay (reference value: 100%); format: functional; settings: A549, 24 h, read-out: Activity
A549 [5] = experiment: Cytotoxicity against human A549 cells assessed as cell viability at 60 uM after 24 hrs by MTT assay (reference value: 100%); format: functional; settings: A549, 24 h, read-out: Activity
BFTC-905 = settings: Homo sapiens, at 20 to 80 µM
Description: Cytotoxicity against human BFTC905 cells assessed as reduction in cell viability at 20 to 80 uM after 24 hrs by MTT assay

RKO = settings: Homo sapiens, at 20 to 80 µM
Description: Cytotoxicity against human RKO cells assessed as reduction in cell viability at 20 to 80 uM after 24 hrs by MTT assay

A549 [6] = experiment: Cytotoxicity against human A549 cells assessed as cell viability at >40 uM after 24 hrs by MTT assay relative to gefitinib; format: functional

Compound	inhibition (BFTC-905)	inhibition (RKO)	Ratio (A549 [6])	also measured
COc1cc2ncnc(Nc3ccc(F)c(Cl)c3)c2cc1OCCCN1CCOC(=O)C1	–	–	–	viability at 40 µM (A549 [1]): 91%; viability at 20 µM (A549 [2]): 93.1%; viability at 80 µM (A549 [3]): 94.9%; viability at 10 µM (A549 [4]): 96.1%; viability at 60 µM (A549 [5]): 94.1%
COC(=O)CCC(=O)N1CCN(CCCOc2cc3c(Nc4ccc(F)c(Cl)c4)ncnc3cc2OC)CC1	Active	Active	–	–
CCCCCCCCCCCCOC(=O)CCC(=O)N1CCN(CCCOc2cc3c(Nc4ccc(F)c(Cl)c4)ncnc3cc2OC)CC1	–	–	15	–
CCCCCCCCCCOC(=O)CCC(=O)N1CCN(CCCOc2cc3c(Nc4ccc(F)c(Cl)c4)ncnc3cc2OC)CC1	–	–	15	–
COc1cc2ncnc(Nc3ccc(F)c(Cl)c3)c2cc1OCCCN1CCN(C(=O)CCC(=O)O)CC1	Active	Active	–	–
CCCCCCCCCCCOC(=O)CCC(=O)N1CCN(CCCOc2cc3c(Nc4ccc(F)c(Cl)c4)ncnc3cc2OC)CC1	–	–	15	–
